One test concerns the target T1, EGF-R1 (Homo sapiens, UniProt P00533).
T1 construct: purified from human A431 cell membranes; purchased Sigma E3641; host or cells: human A431 cell membranes (endogenous protein)
As to the kind of experiment: Kinase selectivity assay EGF-R1. Format: biochemical. On the procedure:
(§1) Assays to test compound inhibition of other kinases were preformed using methods that measure the amount of phosphorylation of a biotinylated peptide substrate. Biotinylated peptide substrates were selected from the literature as appropriate for the enzyme being evaluated. […] Assay conditions vary slightly for each protein kinase, for example, insulin receptor kinase requires 10 mM MnCl2 for activity and Calmodulin-dependent protein kinase requires calmodulin and 2 mM CaCl2. The reaction mixture was dispensed into the wells of a streptavidin coated Flashplate and 1 μL test compound in 100% DMSO was added to a 100 μL reaction volume resulting in a final concentration of 1% DMSO in the reaction. Enzyme was diluted in 50 mM Tris-HCl pH=8.0, 0.1% BSA and added to each well. The reaction was incubated for one hour at 30° C. in the presence of a test compound. After one hour the reaction mix was aspirated from the plate and the plate was washed with PBS containing 100 mM EDTA. The plate was read on a scintillation counter to determine ^33P-γ-ATP incorporated into the immobilized peptide substrate. Test compounds were assayed in duplicate at 8 concentrations (100 μM, 10 μM, 1 μM, 100 nM, 10 nM, 1 nM, 100 pM, 10 pM). A maximum and minimum signal for the assay was determined on each plate. […] Known inhibitor compounds appropriate for the kinase being assayed were also included on each plate. […]

The target in test [1] is T2, Casein Kinase 1 (CK1 delta isoform) (Rattus norvegicus, UniProt Q06486).
T2 construct: a truncation at amino acid 318 of the C-terminal portion of the rat CK1 delta isoform; purchased New England Biolabs 6030; host or cells: E. coli
T2 sequence (Q06486 1-317): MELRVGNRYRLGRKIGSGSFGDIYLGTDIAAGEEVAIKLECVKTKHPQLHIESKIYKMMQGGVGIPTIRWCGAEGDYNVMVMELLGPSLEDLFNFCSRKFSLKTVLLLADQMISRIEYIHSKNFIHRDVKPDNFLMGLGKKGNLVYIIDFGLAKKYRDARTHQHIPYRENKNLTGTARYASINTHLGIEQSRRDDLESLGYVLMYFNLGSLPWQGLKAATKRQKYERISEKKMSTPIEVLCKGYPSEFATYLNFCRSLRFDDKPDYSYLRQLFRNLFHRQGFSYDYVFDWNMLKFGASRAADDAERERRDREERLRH
As to the kind of experiment: Kinase selectivity assay Casein Kinase 1. The format is biochemical. The protocol:
as §1

The subject of another test is A375 malignant melanoma. As to the kind of experiment: Inhibition of cell proliferation, 14C-thymidine incorporation, A375. Format: cell-based. The conditions noted are these: Homo sapiens, A-375. The protocol: The ability of a test compound to inhibit the proliferation of cell growth was determined by measuring incorporation of ^14C-labelled thymidine into newly synthesized DNA within the cells. This method was used on cell lines derived from carcinomas originating from several tissues such as HeLa cervical adenocarcinoma (American Type Culture Collection (ATCC), Virginia, Cat. #CCL-2), HCT-116 colon carcinoma (CCL-247), MDA-MB-231 (Xenogen Corp.), PC-3 prostate adenocarcinoma (ATCC CRL-1435) and A375 malignant melanoma (ATCC CRL-1619).
Using this method, the effect of a compound on cell growth of cells with many different phenotypes can be determined. Cells were trypsinized and counted and 3000–8000 cells were added to each well of a 96-well CytoStar tissue culture treated scintillating microplate (Amersham #RPNQ0160) in complete medium in a volume of 100 μl. Cells were incubated for 24 hours in complete medium at 37° C. in an atmosphere containing 5% CO2. 1 μL of test compound in 100% DMSO was then added to the wells of the plate. DMSO only was added to control wells. Cells were incubated for 24 more hours in complete medium at 37° C. in an atmosphere containing 5% CO2. […] The degree of methyl ^14C-thymidine incorporation was quantified on a Packard Top Count.
For orientation: Dividing cells build labelled thymidine or BrdU into new DNA.

Bounds are passed on as bounds.

T1 sequence (P00533 25-1210): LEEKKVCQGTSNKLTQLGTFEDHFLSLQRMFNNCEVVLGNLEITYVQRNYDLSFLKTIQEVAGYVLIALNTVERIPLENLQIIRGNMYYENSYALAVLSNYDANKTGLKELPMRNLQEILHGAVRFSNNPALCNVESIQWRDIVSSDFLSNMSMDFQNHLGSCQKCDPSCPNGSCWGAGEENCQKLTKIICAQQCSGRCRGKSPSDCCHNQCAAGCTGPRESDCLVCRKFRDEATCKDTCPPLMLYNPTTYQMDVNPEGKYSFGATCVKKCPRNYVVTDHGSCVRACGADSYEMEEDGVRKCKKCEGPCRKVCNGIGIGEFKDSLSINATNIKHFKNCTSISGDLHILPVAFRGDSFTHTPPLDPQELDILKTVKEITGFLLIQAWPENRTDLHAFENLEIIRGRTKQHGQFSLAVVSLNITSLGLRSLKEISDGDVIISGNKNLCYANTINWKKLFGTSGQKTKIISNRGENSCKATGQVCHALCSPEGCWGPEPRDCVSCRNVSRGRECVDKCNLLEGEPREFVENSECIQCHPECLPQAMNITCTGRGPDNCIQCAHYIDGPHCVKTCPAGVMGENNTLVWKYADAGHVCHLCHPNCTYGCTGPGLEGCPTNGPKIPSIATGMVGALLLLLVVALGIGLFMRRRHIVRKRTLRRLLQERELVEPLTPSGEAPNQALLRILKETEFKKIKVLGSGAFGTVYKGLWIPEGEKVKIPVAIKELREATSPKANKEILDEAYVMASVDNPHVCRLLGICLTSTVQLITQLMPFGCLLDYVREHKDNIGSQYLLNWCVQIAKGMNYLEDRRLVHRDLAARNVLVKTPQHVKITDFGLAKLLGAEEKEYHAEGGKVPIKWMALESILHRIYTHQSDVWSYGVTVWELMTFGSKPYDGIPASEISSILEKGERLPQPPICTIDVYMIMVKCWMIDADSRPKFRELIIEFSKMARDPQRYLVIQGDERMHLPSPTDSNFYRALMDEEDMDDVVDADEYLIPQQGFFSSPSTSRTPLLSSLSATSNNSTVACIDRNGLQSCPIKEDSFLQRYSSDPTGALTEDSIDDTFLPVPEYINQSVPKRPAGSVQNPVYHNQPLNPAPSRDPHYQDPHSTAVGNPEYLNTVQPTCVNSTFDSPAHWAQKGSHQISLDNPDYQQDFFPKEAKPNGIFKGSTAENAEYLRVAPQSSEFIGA

In general, IC50 refers to the point on the concentration scale where inhibition reaches its midpoint. Read a low IC50 as inhibition by little substance. Consider `OCCCNc1cncc(-c2ncnc(Nc3cccc(Cl)c3)n2)c1` [Compound 1, 3-((5-(4-((3-chlorophenyl)amino)-1,3,5-triazin-2-yl)-3-pyridinyl)amino)-1-propanol], for which the IC50 at EGF-R1 is over 100000 nM; in test [1], 115 nM.

In the test on A375 malignant melanoma, `OCCCNc1cc(-c2ncnc(Nc3cccc(Cl)c3)n2)ccn1` [Compound 2, 3-((4-(4-((3-chlorophenyl)amino)-1,3,5-triazin-2-yl)-2-pyridinyl)amino)-1-propanol] came in with an IC50 of 80 nM.

These data come from patent US7205298B2, “Substituted triazine kinase inhibitors” (Janssen Pharmaceutica N.V., priority 2002, dated 2007).
